The first test relates to Myzus persicae (Sulzer). As to the kind of experiment: Insecticidal Activity Test 1 against Myzus persicae (Sulzer), foliar spray on potted peppers, approximately 5 ppm. Format: in vivo. As to conditions: in Capsicum, 120 h, approximately 5 ppm drug solution in water, counted on day 5 after spraying, read-out: mortality rate rating. The source says:
Insecticidal Activity Test 1 Against Myzus persicae (Sulzer)
Peppers were planted in plastic pots with a diameter of 8 cm and a height of 8 cm, Myzus persicae (Sulzer) was reproduced therein, and then the number of Myzus persicae (Sulzer) in each pot was investigated. Some of the compounds prepared in the examples were selected, the compound was dispersed in water to be diluted to approximately 5 ppm, thereby preparing a drug solution.
The drug solution was sprayed onto the foliage of the peppers planted in the pots using a hand sprayer and air-dried, and the pots were stored in a green house.
(§1) On day 5 after the drug spraying, the number of Myzus persicae (Sulzer) parasitic on each pepper was counted, a mortality rate was calculated from the following formula, and the rating of each compound was investigated.
(§2) [formula] • A rating: 90% to 100% mortality • B rating: 80% or more and less than 90% mortality • C rating: less than 80% mortality
The mortality is the share of the test organisms that died. With `CCN(C(=O)c1cnc(-c2noc(C)n2)n1C)c1cccnc1` [Ia-1-1-1, N-ethyl-1-methyl-2-(5-methyl-1,2,4-oxadiazol-3-yl)-N-(pyridin-3-yl)-1H-imidazole-5-carboxamide], the mortality at 5 µg/mL was in the range of 90 to 100%.

On to `CCc1nc(-c2ncc(C(=O)N(CC)c3cccnc3)n2C)no1` [Ia-1-1-8, N-ethyl-2-(5-ethyl-1,2,4-oxadiazol-3-yl)-1-methyl-N-(pyridin-3-yl)-1H-imidazole-5-carboxamide], for which the mortality at 5 µg/mL lay within 90 to 100%.

Consider `CCN(C(=O)c1cnc(-c2noc(C3CC3)n2)n1C)c1cccnc1` [Ia-1-1-12, 2-(5-cyclopropyl-1,2,4-oxadiazol-3-yl)-N-ethyl-1-methyl-N-(pyridin-3-yl)-1H-imidazole-5-carboxamide], for which the mortality at 5 µg/mL was in the range of 90 to 100%.

On to `CCN(C(=O)c1cnc(-c2noc(C3CCOCC3)n2)n1C)c1cccnc1` [Ia-1-1-25, N-ethyl-1-methyl-N-(pyridin-3-yl)-2-(5-(tetrahydro-2H-pyran-4-yl)-1,2,4-oxadiazol-3-yl)-1H-imidazole-5-carboxamide], for which the mortality at 5 µg/mL lay in the range of 90 to 100%.

On to `CCN(C(=O)c1cnc(-c2noc(N3CCCCC3)n2)n1C)c1cccnc1` [Ia-1-1-26, N-ethyl-1-methyl-2-(5-(piperidin-1-yl)-1,2,4-oxadiazol-3-yl)-N-(pyridin-3-yl)-1H-imidazole-5-carboxamide], for which the mortality at 5 µg/mL is 90 to 100%.

Another test relates to Myzus persicae (Sulzer). Briefly: Insecticidal Activity Test 2 against Myzus persicae (Sulzer), foliar spray on potted peppers, approximately 25 ppm. As to conditions: in Capsicum, 120 h, approximately 25 ppm drug solution in water, counted on day 5 after spraying, read-out: mortality rate rating. Format: in vivo.
Source text: Insecticidal Activity Test 2 Against Myzus persicae (Sulzer)
Peppers were planted in plastic pots with a diameter of 8 cm and a height of 8 cm, Myzus persicae (Sulzer) was reproduced therein, and then the number of Myzus persicae (Sulzer) in each pot was investigated. Some of the compounds prepared in the examples were selected, the compound was dispersed in water to be diluted to approximately 25 ppm, thereby preparing a drug solution.
The drug solution was sprayed onto the foliage of the peppers planted in the pots and air-dried, and the pots were stored in a green house.
as §1, §2
In the case of `CCN(C(=O)c1cnc(-c2noc(C(F)F)n2)n1C)c1cccnc1` [Ia-1-1-2, 2-(5-(difluoromethyl)-1,2,4-oxadiazol-3-yl)-N-ethyl-1-methyl-N-(pyridin-3-yl)-1H-imidazole-5-carboxamide], the mortality at 25 µg/mL is 90 to 100%.

Regarding `CCN(C(=O)c1cnc(-c2noc(C(C)(C)C)n2)n1C)c1cccnc1` [Ia-1-1-5, 2-(5-(tert-butyl)-1,2,4-oxadiazol-3-yl)-N-ethyl-1-methyl-N-(pyridin-3-yl)-1H-imidazole-5-carboxamide], the mortality at 25 µg/mL fell in the range of 90 to 100%.

With `CCN(C(=O)c1cnc(-c2noc(C(C)C)n2)n1C)c1cccnc1` [Ia-1-1-6, N-ethyl-2-(5-isopropyl-1,2,4-oxadiazol-3-yl)-1-methyl-N-(pyridin-3-yl)-1H-imidazole-5-carboxamide], the mortality at 25 µg/mL was in the range of 90 to 100%.

On to `CCCc1nc(-c2ncc(C(=O)N(CC)c3cccnc3)n2C)no1` [Ia-1-1-7, N-ethyl-1-methyl-2-(5-propyl-1,2,4-oxadiazol-3-yl)-N-(pyridin-3-yl)-1H-imidazole-5-carboxamide], for which the mortality at 25 µg/mL is 90 to 100%.

`CCN(C(=O)c1cnc(-c2noc(CC3CC3)n2)n1C)c1cccnc1` [Ia-1-1-16, 2-(5-(cyclopropylmethyl)-1,2,4-oxadiazol-3-yl)-N-ethyl-1-methyl-N-(pyridin-3-yl)-1H-imidazole-5-carboxamide]: the mortality at 25 µg/mL was 90 to 100%.

As for `CCN(C(=O)c1cnc(-c2noc(-c3ccccc3)n2)n1C)c1cccnc1` [Ia-1-1-21, N-ethyl-1-methyl-2-(5-phenyl-1,2,4-oxadiazol-3-yl)-N-(pyridin-3-yl)-1H-imidazole-5-carboxamide], the mortality at 25 µg/mL was 90 to 100%.

Turning to `CCN(C(=O)c1cnc(-c2noc(-c3cocn3)n2)n1C)c1cccnc1` [Ia-1-1-22, N-ethyl-1-methyl-2-(5-(oxazol-4-yl)-1,2,4-oxadiazol-3-yl)-N-(pyridin-3-yl)-1H-imidazole-5-carboxamide], the mortality at 25 µg/mL lay within 90 to 100%.

Turning to `CCN(C(=O)c1cnc(-c2noc(-c3cnco3)n2)n1C)c1cccnc1` [Ia-1-1-23, N-ethyl-1-methyl-2-(5-(oxazol-5-yl)-1,2,4-oxadiazol-3-yl)-N-(pyridin-3-yl)-1H-imidazole-5-carboxamide], the mortality at 25 µg/mL fell in the range of 90 to 100%.

For `CCN(C(=O)c1cnc(-c2noc(-c3ccccc3F)n2)n1C)c1cccnc1` [Ia-1-1-24, N-ethyl-1-methyl-2-(5-(2-fluorophenyl)-1,2,4-oxadiazol-3-yl)-N-(pyridin-3-yl)-1H-imidazole-5-carboxamide], the mortality at 25 µg/mL fell in the range of 90 to 100%.

Take `CCN(C(=O)c1cnc(-c2noc(-c3cccnc3)n2)n1C)c1cccnc1` [Ia-1-1-30, N-ethyl-1-methyl-N-(pyridin-3-yl)-2-(5-(pyridin-3-yl)-1,2,4-oxadiazol-3-yl)-1H-imidazole-5-carboxamide]: the mortality at 25 µg/mL lay within 90 to 100%.

Consider `CCN(C(=O)c1cnc(-c2noc(-c3ccncc3)n2)n1C)c1cccnc1` [Ia-1-1-31, N-ethyl-1-methyl-N-(pyridin-3-yl)-2-(5-(pyridin-4-yl)-1,2,4-oxadiazol-3-yl)-1H-imidazole-5-carboxamide], for which the mortality at 25 µg/mL fell in the range of 90 to 100%.

On to `CCN(C(=O)c1cnc(-c2noc(NC(C)C)n2)n1C)c1cccnc1` [Ia-1-1-33, N-ethyl-2-(5-(isopropylamino)-1,2,4-oxadiazol-3-yl)-1-methyl-N-(pyridin-3-yl)-1H-imidazole-5-carboxamide], for which the mortality at 25 µg/mL lay within 90 to 100%.

On to `CCNc1nc(-c2ncc(C(=O)N(CC)c3cccnc3)n2C)no1` [Ia-1-1-35, N-ethyl-2-(5-(ethylamino)-1,2,4-oxadiazol-3-yl)-1-methyl-N-(pyridin-3-yl)-1H-imidazole-5-carboxamide], for which the mortality at 25 µg/mL was in the range of 90 to 100%.

With `CCN(C(=O)c1cnc(-c2noc(N3CCOCC3)n2)n1C)c1cccnc1` [Ia-1-1-37, N-ethyl-1-methyl-2-(5-morpholino-1,2,4-oxadiazol-3-yl)-N-(pyridin-3-yl)-1H-imidazole-5-carboxamide], the mortality at 25 µg/mL was in the range of 90 to 100%.

Consider `CCN(C(=O)c1cnc(-c2noc(N(C(C)=O)C(C)C)n2)n1C)c1cccnc1` [Ia-1-1-38, N-ethyl-2-(5-(N-isopropylacetamido)-1,2,4-oxadiazol-3-yl)-1-methyl-N-(pyridin-3-yl)-1H-imidazole-5-carboxamide], for which the mortality at 25 µg/mL lay within 90 to 100%.

With `CCN(C(=O)c1cnc(C2=NOC(C)(C)N2C(=O)C2CC2)n1C)c1cccnc1` [Ia-1-4-3, 2-(4-(cyclopropanecarbonyl)-5,5-dimethyl-4,5-dihydro-1,2,4-oxadiazol-3-yl)-N-ethyl-1-methyl-N-(pyridin-3-yl)-1H-imidazole-5-carboxamide], the mortality at 25 µg/mL fell in the range of 90 to 100%.

As to `CCN(C(=O)c1cnc(C2=NOC(CC)(CC)N2)n1C)c1cccnc1` [Ia-1-4-4, 2-(5,5-diethyl-4,5-dihydro-1,2,4-oxadiazol-3-yl)-N-ethyl-1-methyl-N-(pyridin-3-yl)-1H-imidazole-5-carboxamide], the mortality at 25 µg/mL is 90 to 100%.

`CCN(C(=O)c1cnc(C2=NOC3(CCOCC3)N2)n1C)c1cccnc1` [Ia-1-4-10, N-ethyl-1-methyl-N-(pyridin-3-yl)-2-(1,8-dioxa-2,4-diazaspiro[4.5]dec-2-en-3-yl)-1H-imidazole-5-carboxamide]: the mortality at 25 µg/mL is 90 to 100%.

Consider `CCN(C(=O)c1cnc(C2=NOC3(CCOCC3)N2C(=O)C2CC2)n1C)c1cccnc1` [Ia-1-4-12, 2-(4-(cyclopropanecarbonyl)-1,8-dioxa-2,4-diazaspiro[4.5]dec-2-en-3-yl)-N-ethyl-1-methyl-N-(pyridin-3-yl)-1H-imidazole-5-carboxamide], for which the mortality at 25 µg/mL was in the range of 90 to 100%.

For the compound `CCN(C(=O)c1cnc(C2=NOC3(CCC(C(F)(F)F)CC3)N2C)n1C)c1cccnc1` (stereo not drawn) [Ia-1-4-25, N-ethyl-1-methyl-2-(4-methyl-8-(trifluoromethyl)-1-oxa-2,4-diazaspiro[4.5]dec-2-en-3-yl)-N-(pyridin-3-yl)-1H-imidazole-5-carboxamide], the mortality at 25 µg/mL lay in the range of 90 to 100%.

For `CCN(C(=O)c1cnc(C2=NOC(c3ccccc3F)N2)n1C)c1cccnc1` (stereo not drawn) [Ia-1-4-33, N-ethyl-2-(5-(2-fluorophenyl)-4,5-dihydro-1,2,4-oxadiazol-3-yl)-1-methyl-N-(pyridin-3-yl)-1H-imidazole-5-carboxamide], the mortality at 25 µg/mL was 90 to 100%.

As to `CCN(C(=O)c1cnc(C2=NOC(c3cccnc3F)N2)n1C)c1cccnc1` (stereo not drawn) [Ia-1-4-34, N-ethyl-2-(5-(2-fluoropyridin-3-yl)-4,5-dihydro-1,2,4-oxadiazol-3-yl)-1-methyl-N-(pyridin-3-yl)-1H-imidazole-5-carboxamide], the mortality at 25 µg/mL was in the range of 90 to 100%.

For the compound `CCN(C(=O)c1cnc(C2=NC(C)(C)ON2C)n1C)c1cccnc1` [Ia-1-5-1, N-ethyl-1-methyl-N-(pyridin-3-yl)-2-(2,5,5-trimethyl-2,5-dihydro-1,2,4-oxadiazol-3-yl)-1H-imidazole-5-carboxamide], the mortality at 25 µg/mL was in the range of 90 to 100%.

As for `CCN(C(=O)c1cnc(C2=NC3(CCN(C(=O)OC(C)(C)C)CC3)ON2C)n1C)c1cccnc1` [Ia-1-5-3, tert-butyl 3-(5-(ethyl(pyridin-3-yl)carbamoyl)-1-methyl-1H-imidazole-2-yl)-2-methyl-1-oxa-2,4,8-triazaspiro[4.5]dec-3-en-8-carboxylate], the mortality at 25 µg/mL was 90 to 100%.

As for `CCN(C(=O)c1cnc(C2=NC(c3cccnc3F)ON2C)n1C)c1cccnc1` (stereo not drawn) [Ia-1-5-9, N-ethyl-2-(5-(2-fluoropyridin-3-yl)-2-methyl-2,5-dihydro-1,2,4-oxadiazol-3-yl)-1-methyl-N-(pyridin-3-yl)-1H-imidazole-5-carboxamide], the mortality at 25 µg/mL lay in the range of 90 to 100%.
